Assay results from patent US10188633B2, “Identification of small molecules that facilitate therapeutic exon skipping” (The Regents of the University of California, priority 2011, dated 2019).
Several values for one entry are separate records, joined by “and”; a condition that tells them apart may be missing. Equal entries are not always repeated. Structures can show the parent of a compound that is named as a salt. Where two headings read alike, the source gives them in different places.

What was measured:
exon skipping = test: Counter screens, 16 point titrations and mdx mouse myotubes (validation of lead hits); format: cell-based
Text: The cell line, which was adapted to allow the screening of thousands of compounds in multiple replicates, was obtained from Dr. Qi Lu. […]

DMD exon 51 = DMD exon 51 skipping in reprogrammed DMD patient fibroblasts fused to myotubes (GM05017, iDRM05017) with exon 51 AO; format: cell-based, human; settings: compound added 24 h after AO for two days; nested RT-PCR exons 43-52
Procedure: (A) Differentiated primary mouse myotubes were transfected either with 100 nM 2′-O-methyl M23D, which targets exon 23 splice donor region or mock transfected for 24 hours after which the transfection reagent was removed, and myotubes were treated with different concentrations of Dantrolene for 48 hours. Nested RT-PCR was performed on cDNA between exons 20-26, as previously described. The 901 bp band is the full-length mRNA product, the 688 bp mRNA product is a single skip of exon 23, and the 550 bp mRNA product is a double skip of exons 22 and 23. (B) Mouse Dmd exon 23-skipped transcript levels were quantified using a taqman assay with primer-probe sets spanning the splice junction created by an exon 23 skip (22-24 join) relative to primers amplifying the splice junction of exons 22 and 23 (representing the full length mRNA), as previously described. […] Error bars represent standard deviation of qRT-PCR triplicates. (C) Patient derived fibroblasts with exon 45-50 deletion (confirmed by microarray, see FIG. 6) were immortalized with lentiviral hTERT and transduced with inducible lentiviral MyoD [26]. Cells were grown to confluence, induced for MyoD activity, and fused for 10 days in low serum differentiation media. On Day 7, h51AON [5′ […] 3′] (SEQ ID NO:2) (same sequence as Pro051) within human exon 51 was added at concentrations indicated. Twenty-four hours later Dantrolene or vehicle was added. Cells were harvested 2 days later and total RNA isolated. RT-PCR amplified a fragment of cDNA from exons 42-53 which was followed by a nested PCR to generate a fragment spanning exons 43-52. The 540 bp product is the full length DMD mRNA species and the 307 bp product indicates the exon 51 skip isoform. Quantitation was performed using the Agilent Bioanalyzer and represented as the skip/full-length mRNA ratio.
Patient fibroblasts with a DMD exon 45-50 deletion were immortalized and transduced with a lenti-viral vector expressing inducible MyoD to create iDRMs (inducibly directly reprogrammable myotubes, specifically iDRM05017s). iDRM05017s were induced for MyoD activity and then cultured for 10 days in fusion media. On Day 7, AO was added for twenty-four hours then removed and Piperacetazine, Trifluoperazine Dihydrochloride, Fluphenazine Dihydrochloride or vehicle (Dimethyl sulfoxide; DMSO) were added in fresh media. After two days total RNA was harvested, cDNA reverse transcribed with a DMD specific primer in exon 54, and exon 51 skipping was detected by nested RT-PCR spanning exons 43-52. Quantitation of exon 51 skipping was performed using the Agilent Bioanalyzer and is represented as the proportion of exon 51 skipping. Error bars represent the standard deviation (SD) of 3 independent wells.
Patient fibroblasts were transduced with HTERT and an inducible MyoD vector [26]. […] Exon 51 skipping activity was assessed in the context of transfecting an exon 51 2′-O-methyl AO with equivalent sequence to Pro051 seven days after fusion. This AO is directed at an exonic splicing enhancer (ESE) sequence within exon 51. The AO was removed prior to addition of dantrolene and cultures were harvested two days later. A nested RT-PCR was performed between DMD exons 43-52 and levels of exon 51 skipping were determined by quantitating capillary electrophoresis separated fragments representing skipped and unskipped DMD mRNA.

[1] = tested on: human DMD exon 50 GFP based reporter; test: BioMol high throughput screen in Ex50-GFP reporter C2C12 myoblasts, with or without AON6; format: cell-based, mouse; settings: for Average Fluorescence (n = 3): average of 3 replicate plates
Text: Small molecule libraries were screened for exon skipping promoting activity in C2C12 myoblasts expressing a human DMD exon 50 GFP based reporter. […] In the reporter cells, successful skipping of DMD exon 50 creates in-frame GFP expression. Number of cells that were fluorescing was quantified using a high content cell imager in 384 well plate format. Fluorescence was normalized by subtracting the average fluorescence value of the carrier (DMSO) controls. Fluorescence readouts are plotted for the BioMol library screen both with (+AO) and without (−AO) from Source Plate 1 (containing the Orphan Ligand, Ion Channel, Enzyme Inhibitor, and Endocannabanoid libraries, n=300). Each point for the DMSO controls, all compounds, and the Top 5% from Source Plate 1 (n=15) represents the average normalized fluorescence of 6 replicates in the −AO screen and 3 replicates in the +AO screen. […] Individual points for dantrolene are plotted with the bold horizontal line indicating the median. The short horizontal lines interspersed among the data points indicate 1, 2, and 3 standard deviations away from the DMSO treatment mean fluorescence.
In contrast to prior screens aimed at identifying small molecules which impact exon skipping, our screen is unique at least because it relies on robust quantitation of a skipping reporter in the context of a muscle lineage cell in the presence and absence of suboptimal AO. These screens were performed using a mouse muscle cell line (C2C12) expressing a human DMD exon 50 GFP based reporter selected to minimize experimental variation and sensitivity in the context of an automated and quantitative fluorescent scanning system.
AO was added prior to small molecule incubation in an effort to identify molecules that facilitate AO skipping rather than AO delivery. The fluorescence induced by each compound was normalized to a vehicle controls per plate to correct for plate to plate variability. Fluorescence was averaged across replicate plates (n=6 without AO screen, n=3 with AO screen). Compounds were rank ordered based on average intensity of fluorescence and difference between the without AO and with AO screen (FIG. 1 and Table 2).
A stable clone was generated from C2C12 cells transfected with a human exon 50 DMD GFP reporter (ex50GFP) that has been previously described. Ex50GFP reporter myoblasts were seeded into uncoated 384 well plates and were incubated for 4 hours either with or without 300 nM of 2′-O-methyl phosphorothioate AON6 [5′[…] 3′ (SEQ ID NO:1)] targeting the human exon 50 splice donor site. Cells were transfected with AON6 using the FUGENE (Roche) transfection reagent per manufacturer's instructions. Following AON6 incubation, each component of the BioMol library (n=503) was screened at 10 uM concentration with a final concentration of the DMSO carrier being 1%. Forty-eight hours later fluorescence was measured using the MicroXpress high content imager and analyzed using MetaXpress. Immediately preceding imaging, DNA was stained with Hoescht for 30 min. The BioMol screen without AO (−AO) was performed in 6 replicates, and the with AO (+AO) screen was performed in 3 replicates. For the screen analysis raw fluorescence values were normalized to carrier controls present on each plate by subtracting the values. Negative fluorescence values were set to 0. The data from each compound were averaged from all replicates. For secondary screening by 12 or 16 point dose response, Ex50GFP myoblasts or C2C12 cells without the reporter were seeded on uncoated 384 well plates. A sub-optimal dose of AON6 targeting DMD exon 50 was added for 4 hours.

[2] = Without AON6 screen, compound 10 uM, 48 h, normalized to DMSO carrier controls
[3] = Without AON6 screen, compound 10 uM, average of 6 replicate plates
[4] = With AON6 screen, compound 10 uM, 48 h, fluorescence normalized by subtracting DMSO carrier controls
[5] = With AON6 screen, compound 10 uM, 48 h, normalized to DMSO carrier controls
[6] = With AON6 screen, compound 10 uM

## Cc1c2ccncc2c(C)c2c1[nH]c1ccccc12 [Ellipticine]
Exon skipping
  efficacy in counter screen and on mdx mouse myotubes: showing efficacy in counter screen and on mdx mouse myotubes

## COC(=O)Nc1nc2cc(Sc3ccccc3)ccc2[nH]1 [Fenbendazole]
Exon skipping
  efficacy in counter screen and on mdx mouse myotubes: showing efficacy in counter screen and on mdx mouse myotubes

## OCCN1CCN(CCCN2c3ccccc3Sc3ccc(C(F)(F)F)cc32)CC1 [Fluphenazine dihydrochloride]
DMD exon 51
  AO directed DMD exon 51 skipping: enhance AO directed DMD exon 51 skipping

## CCCCN(CCCC)CCC(O)c1cc2c(Cl)cc(Cl)cc2c2cc(C(F)(F)F)ccc12.Cl (stereo not drawn) [Halofantrine hydrochloride]
Exon skipping
  efficacy in counter screen and on mdx mouse myotubes: showing efficacy in counter screen and on mdx mouse myotubes

## CC1=CC(=O)c2ccccc2C1=O [Menadione]
DMD exon 51
  AO directed DMD exon 51 skipping: enhances AO directed DMD exon 51 skipping

## COC(=O)C1=C(C)NC(C)=C(C(=O)OCCCN2CCC(c3ccccc3)(c3ccccc3)CC2)[C@H]1c1cccc([N+](=O)[O-])c1 [NIGULDIPINE]
[1]
  Average Fluorescence (n = 6): 4.12
  Fluorescence Plate 1: 5.07
  Fluorescence Plate 2: 1.34
  Fluorescence Plate 3: 3.34
  Fluorescence Plate 4: 8.06
  Fluorescence Plate 5: 6.06
  Fluorescence Plate 6: 0.84

## O=C(Nc1ccc([N+](=O)[O-])cc1Cl)c1cc(Cl)ccc1O [Niclosamide]
Exon skipping
  efficacy in counter screen and on mdx mouse myotubes: showing efficacy in counter screen and on mdx mouse myotubes

## CCCCCCCC/C=C\CCCCCCCC(=O)NCCc1ccc(O)c(O)c1 [Oleoyl dopamine]
[1]; [2]
  Fluorescence Plate 1: 2.78
  Fluorescence Plate 2: 1.51
  Fluorescence Plate 3: 12.34
  Fluorescence Plate 4: 3.21
  Fluorescence Plate 5: 3.30
  Fluorescence Plate 6: 1.32
[1]; [3]
  Average Fluorescence (n = 6): 4.08

## O=c1[nH]c2ccccc2n1C1CCN(CCCC(c2ccc(F)cc2)c2ccc(F)cc2)CC1 [PIMOZIDE]
Exon skipping
  efficacy in counter screen and on mdx mouse myotubes: showing efficacy in counter screen and on mdx mouse myotubes

## CCN(CC)CCNC(=O)c1ccc(N)cc1 [PROCAINAMIDE]
[1]; [4]
  Fluorescence Plate 1: 13.80
[1]; [5]
  Fluorescence Plate 2: 19.66
  Fluorescence Plate 3: 20.81
[1]; [6]
  Average Fluorescence (n = 3): 18.09

## COC(=O)[C@H]1[C@H]2C[C@@H]3c4[nH]c5cc(OC)ccc5c4CCN3C[C@H]2C[C@@H](OC(=O)c2cc(OC)c(OC)c(OC)c2)[C@@H]1OC [Reserpine]
Exon skipping
  efficacy in counter screen and on mdx mouse myotubes: showing efficacy in counter screen and on mdx mouse myotubes

## Cn1cc(C2=C(c3cn(CCCSC(=N)N)c4ccccc34)C(=O)NC2=O)c2ccccc21 [Ro 31-8220]
[1]; [2]
  Fluorescence Plate 1: 17.56
  Fluorescence Plate 2: 50.61
  Fluorescence Plate 3: 46.79
  Fluorescence Plate 4: 38.49
  Fluorescence Plate 5: 31.21
  Fluorescence Plate 6: 34.94
[1]; [3]
  Average Fluorescence (n = 6): 36.60

## COc1ccc2c(c1)CN(C)CCS2 [RyCal S107]
DMD exon 51
  AO directed DMD exon 51 skipping: enhance AO directed DMD exon 51 skipping

## CCOC(=O)Oc1c(OC)cc(C(=O)O[C@@H]2C[C@@H]3CN4CCc5c([nH]c6cc(OC)ccc56)[C@H]4C[C@@H]3[C@H](C(=O)OC)[C@H]2OC)cc1OC [Syrosingopine]
Exon skipping
  efficacy in counter screen and on mdx mouse myotubes: showing efficacy in counter screen and on mdx mouse myotubes

## COc1ccc2cc1Oc1ccc(cc1)C[C@H]1c3cc(c(OC)cc3CCN1C)Oc1c(OC)c(OC)cc3c1[C@H](C2)N(C)CC3 [TETRANDRINE]
[1]; [2]
  Fluorescence Plate 1: 3.15
  Fluorescence Plate 2: 2.41
  Fluorescence Plate 3: 5.39
  Fluorescence Plate 4: 4.64
  Fluorescence Plate 5: 5.03
  Fluorescence Plate 6: 6.64
[1]; [3]
  Average Fluorescence (n = 6): 4.54

## N#C/C(=C\c1ccc(O)c(O)c1)C(N)=O [TYRPHOSTIN 46]
[1]; [4]
  Fluorescence Plate 1: 8.61
[1]; [5]
  Fluorescence Plate 2: 30.70
  Fluorescence Plate 3: 14.09
[1]; [6]
  Average Fluorescence (n = 3): 17.80

## CN1CCN(CCCN2c3ccccc3Sc3ccc(C(F)(F)F)cc32)CC1 [Trifluoperazine dihydrochloride]
DMD exon 51
  AO directed DMD exon 51 skipping: enhance AO directed DMD exon 51 skipping

## N#CC(=C(N)Sc1ccccc1N)C(C#N)=C(N)Sc1ccccc1N [U-0126]
[1]; [4]
  Fluorescence Plate 1: 17.87
[1]; [5]
  Fluorescence Plate 2: 35.65
  Fluorescence Plate 3: 16.65
[1]; [6]
  Average Fluorescence (n = 3): 23.39

## COC[C@H]1OC(=O)c2coc3c2[C@@]1(C)C1=C(C3=O)[C@@H]2CCC(=O)[C@@]2(C)C[C@H]1OC(C)=O [WORTMANNIN]
[1]; [2]
  Fluorescence Plate 1: 4.99
  Fluorescence Plate 2: 3.07
  Fluorescence Plate 3: 4.23
  Fluorescence Plate 4: 5.92
  Fluorescence Plate 5: 6.44
  Fluorescence Plate 6: 3.78
[1]; [3]
  Average Fluorescence (n = 6): 4.74

## O=C(O)[C@@H]1[C@H]2C[C@H]3c4[nH]c5ccccc5c4CCN3C[C@@H]2CC[C@@H]1O [Yohimbinic acid]
DMD exon 51
  AO directed DMD exon 51 skipping: enhance AO directed DMD exon 51 skipping

## CC(=O)c1ccc2c(c1)N(CCCN1CCC(CCO)CC1)c1ccccc1S2 [piperacetazine]
DMD exon 51
  AO directed DMD exon 51 skipping: enhance AO directed DMD exon 51 skipping

## COC(=O)[C@H]1[C@H]2C[C@H]3c4[nH]c5ccccc5c4CCN3C[C@H]2CC[C@@H]1O [rauwolscine hydrochloride]
DMD exon 51
  AO directed DMD exon 51 skipping: enhance AO directed DMD exon 51 skipping

## INDIRUBIN
[1]; [2]
  Fluorescence Plate 3: 6.43 and 6.44
  Fluorescence Plate 5: 3.42 and 6.60
[1]; [3]
  Average Fluorescence (n = 6): 17.88 and 8.26

## Ryanodine
[1]; [4]
  Fluorescence Plate 1: 7.93
[1]; [5]
  Fluorescence Plate 2: 28.86
  Fluorescence Plate 3: 13.31
[1]; [6]
  Average Fluorescence (n = 3): 16.70
DMD exon 51
  AO directed DMD exon 51 skipping: enhance AO directed DMD exon 51 skipping
